Assay results: ChEMBL document CHEMBL5291721, “A preclinical secondary pharmacology resource illuminates target-adverse drug reaction associations of marketed drugs” (Nat Commun, 2023)

Assays:
Estrogen receptor = biological target: T1, Estrogen receptor (Homo sapiens, UniProt P03372)
T1 sequence (P03372 whole entry): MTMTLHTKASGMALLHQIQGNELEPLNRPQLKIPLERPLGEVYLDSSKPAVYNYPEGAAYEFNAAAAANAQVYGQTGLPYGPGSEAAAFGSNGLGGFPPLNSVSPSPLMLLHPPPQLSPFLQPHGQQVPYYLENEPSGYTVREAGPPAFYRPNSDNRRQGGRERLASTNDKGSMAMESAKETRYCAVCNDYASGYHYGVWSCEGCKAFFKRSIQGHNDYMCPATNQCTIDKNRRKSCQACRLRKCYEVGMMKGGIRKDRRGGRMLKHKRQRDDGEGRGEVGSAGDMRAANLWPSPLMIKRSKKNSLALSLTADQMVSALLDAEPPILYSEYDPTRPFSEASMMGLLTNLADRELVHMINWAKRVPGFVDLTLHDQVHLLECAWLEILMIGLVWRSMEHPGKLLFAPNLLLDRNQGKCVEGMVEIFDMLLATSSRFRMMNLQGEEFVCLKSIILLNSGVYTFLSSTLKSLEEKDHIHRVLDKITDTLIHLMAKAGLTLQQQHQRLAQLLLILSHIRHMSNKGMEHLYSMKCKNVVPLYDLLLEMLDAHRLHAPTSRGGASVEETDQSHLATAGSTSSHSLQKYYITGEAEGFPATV

Histamine H3 receptor = Histamine H3 receptor (Homo sapiens, UniProt Q9Y5N1)
Histamine H3 receptor, sequence (Q9Y5N1 whole entry): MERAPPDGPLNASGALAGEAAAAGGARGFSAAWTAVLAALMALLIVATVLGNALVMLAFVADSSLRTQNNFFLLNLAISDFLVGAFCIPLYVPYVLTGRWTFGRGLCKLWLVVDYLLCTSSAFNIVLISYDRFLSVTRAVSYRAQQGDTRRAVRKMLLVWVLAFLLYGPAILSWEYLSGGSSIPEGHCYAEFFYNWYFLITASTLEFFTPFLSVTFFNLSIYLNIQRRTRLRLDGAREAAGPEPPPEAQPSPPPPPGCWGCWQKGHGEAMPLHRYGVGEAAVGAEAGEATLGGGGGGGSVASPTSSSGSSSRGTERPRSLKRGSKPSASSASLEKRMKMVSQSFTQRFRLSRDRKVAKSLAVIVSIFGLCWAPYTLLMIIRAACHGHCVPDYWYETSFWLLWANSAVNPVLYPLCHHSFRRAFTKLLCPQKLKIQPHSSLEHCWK

Adenosine receptor A2a = Adenosine receptor A2a (Homo sapiens, UniProt P29274)
Adenosine receptor A2a, sequence (P29274 whole entry): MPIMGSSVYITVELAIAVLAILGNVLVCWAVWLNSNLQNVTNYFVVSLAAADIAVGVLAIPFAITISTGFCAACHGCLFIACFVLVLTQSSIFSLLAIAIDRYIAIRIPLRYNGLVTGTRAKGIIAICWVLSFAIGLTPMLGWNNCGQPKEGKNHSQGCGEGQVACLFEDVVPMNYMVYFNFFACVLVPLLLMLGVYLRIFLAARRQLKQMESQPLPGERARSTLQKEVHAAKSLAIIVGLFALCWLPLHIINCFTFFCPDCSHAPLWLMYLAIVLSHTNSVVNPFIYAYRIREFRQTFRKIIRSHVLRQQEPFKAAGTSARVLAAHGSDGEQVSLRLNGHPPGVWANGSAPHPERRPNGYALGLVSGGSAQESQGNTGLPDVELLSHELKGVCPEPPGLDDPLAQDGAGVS

Cannabinoid receptor 1 = Cannabinoid receptor 1 (Homo sapiens, UniProt P21554); format: functional, cell-based
Cannabinoid receptor 1, sequence (P21554 whole entry): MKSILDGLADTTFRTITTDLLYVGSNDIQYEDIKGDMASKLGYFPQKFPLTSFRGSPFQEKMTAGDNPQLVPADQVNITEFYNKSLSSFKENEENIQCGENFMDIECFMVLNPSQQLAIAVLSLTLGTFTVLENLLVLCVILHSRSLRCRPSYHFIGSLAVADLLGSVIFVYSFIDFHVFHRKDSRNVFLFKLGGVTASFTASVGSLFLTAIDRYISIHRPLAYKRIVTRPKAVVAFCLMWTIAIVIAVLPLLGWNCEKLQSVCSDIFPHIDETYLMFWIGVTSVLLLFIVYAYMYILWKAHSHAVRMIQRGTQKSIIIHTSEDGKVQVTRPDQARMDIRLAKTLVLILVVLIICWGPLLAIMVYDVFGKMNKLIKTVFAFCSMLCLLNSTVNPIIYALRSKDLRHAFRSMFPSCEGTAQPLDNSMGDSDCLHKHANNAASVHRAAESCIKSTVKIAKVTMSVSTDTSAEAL

[1] = biological target: Beta-2 adrenergic receptor (Homo sapiens, UniProt P07550); format: functional, cell-based
Beta-2 adrenergic receptor, sequence (P07550 whole entry): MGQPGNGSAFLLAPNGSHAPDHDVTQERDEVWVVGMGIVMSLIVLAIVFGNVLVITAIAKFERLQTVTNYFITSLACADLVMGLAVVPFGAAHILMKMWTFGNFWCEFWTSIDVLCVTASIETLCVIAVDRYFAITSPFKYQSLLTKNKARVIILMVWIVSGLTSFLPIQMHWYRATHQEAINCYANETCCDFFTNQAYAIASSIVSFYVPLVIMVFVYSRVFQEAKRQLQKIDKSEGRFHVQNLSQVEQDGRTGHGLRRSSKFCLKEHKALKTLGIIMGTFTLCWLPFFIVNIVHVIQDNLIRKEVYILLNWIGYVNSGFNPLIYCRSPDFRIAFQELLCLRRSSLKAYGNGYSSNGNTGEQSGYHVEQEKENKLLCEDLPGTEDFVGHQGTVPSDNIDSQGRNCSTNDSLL

[2] = biological target: T2, Muscarinic acetylcholine receptor M1 (Homo sapiens, UniProt P11229); format: functional, cell-based
T2 sequence (P11229 whole entry): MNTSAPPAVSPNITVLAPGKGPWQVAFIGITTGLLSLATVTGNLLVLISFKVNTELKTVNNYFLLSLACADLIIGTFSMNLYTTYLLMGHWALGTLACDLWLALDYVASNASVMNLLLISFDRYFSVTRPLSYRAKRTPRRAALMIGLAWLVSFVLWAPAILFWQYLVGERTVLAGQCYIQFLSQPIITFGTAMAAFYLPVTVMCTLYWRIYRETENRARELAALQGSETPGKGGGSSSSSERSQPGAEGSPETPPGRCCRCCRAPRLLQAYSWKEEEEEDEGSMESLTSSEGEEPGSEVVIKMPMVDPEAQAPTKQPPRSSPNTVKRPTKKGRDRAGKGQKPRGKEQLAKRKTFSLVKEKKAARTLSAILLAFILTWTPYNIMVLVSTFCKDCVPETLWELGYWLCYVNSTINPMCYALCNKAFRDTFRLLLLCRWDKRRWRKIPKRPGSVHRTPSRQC

[3] = biological target: 5-hydroxytryptamine receptor 2B (Homo sapiens, UniProt P41595); format: functional, cell-based
5-hydroxytryptamine receptor 2B, sequence (P41595 whole entry): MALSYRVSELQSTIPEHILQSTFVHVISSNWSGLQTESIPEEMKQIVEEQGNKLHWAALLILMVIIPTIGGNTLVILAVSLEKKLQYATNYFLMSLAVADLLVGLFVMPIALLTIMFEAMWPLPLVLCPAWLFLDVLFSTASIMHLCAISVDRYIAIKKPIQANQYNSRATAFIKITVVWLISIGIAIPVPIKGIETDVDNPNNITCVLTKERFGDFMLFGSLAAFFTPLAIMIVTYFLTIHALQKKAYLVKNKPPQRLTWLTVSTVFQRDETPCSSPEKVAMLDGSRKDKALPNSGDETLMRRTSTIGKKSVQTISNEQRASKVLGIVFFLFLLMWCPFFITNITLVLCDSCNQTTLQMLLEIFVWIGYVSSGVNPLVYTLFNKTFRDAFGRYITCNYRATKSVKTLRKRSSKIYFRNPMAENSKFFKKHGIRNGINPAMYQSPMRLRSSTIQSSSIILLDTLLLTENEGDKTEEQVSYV

[4] = biological target: T3, 5-hydroxytryptamine receptor 1A (Homo sapiens, UniProt P08908); format: functional, cell-based
T3 sequence (P08908 whole entry): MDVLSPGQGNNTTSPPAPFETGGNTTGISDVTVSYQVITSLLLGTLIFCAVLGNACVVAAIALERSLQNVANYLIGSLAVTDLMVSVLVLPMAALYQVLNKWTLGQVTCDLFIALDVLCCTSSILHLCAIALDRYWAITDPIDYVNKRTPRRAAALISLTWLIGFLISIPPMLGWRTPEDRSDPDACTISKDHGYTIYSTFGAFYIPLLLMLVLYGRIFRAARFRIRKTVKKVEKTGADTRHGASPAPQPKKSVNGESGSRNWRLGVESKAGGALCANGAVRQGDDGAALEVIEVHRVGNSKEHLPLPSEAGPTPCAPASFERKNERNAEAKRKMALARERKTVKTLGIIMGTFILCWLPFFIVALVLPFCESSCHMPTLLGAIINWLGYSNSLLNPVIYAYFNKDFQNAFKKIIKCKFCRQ

[5] = biological target: cGMP-inhibited 3',5'-cyclic phosphodiesterase 3A (Homo sapiens, UniProt Q14432); format: functional
cGMP-inhibited 3',5'-cyclic phosphodiesterase 3A, sequence (Q14432 whole entry): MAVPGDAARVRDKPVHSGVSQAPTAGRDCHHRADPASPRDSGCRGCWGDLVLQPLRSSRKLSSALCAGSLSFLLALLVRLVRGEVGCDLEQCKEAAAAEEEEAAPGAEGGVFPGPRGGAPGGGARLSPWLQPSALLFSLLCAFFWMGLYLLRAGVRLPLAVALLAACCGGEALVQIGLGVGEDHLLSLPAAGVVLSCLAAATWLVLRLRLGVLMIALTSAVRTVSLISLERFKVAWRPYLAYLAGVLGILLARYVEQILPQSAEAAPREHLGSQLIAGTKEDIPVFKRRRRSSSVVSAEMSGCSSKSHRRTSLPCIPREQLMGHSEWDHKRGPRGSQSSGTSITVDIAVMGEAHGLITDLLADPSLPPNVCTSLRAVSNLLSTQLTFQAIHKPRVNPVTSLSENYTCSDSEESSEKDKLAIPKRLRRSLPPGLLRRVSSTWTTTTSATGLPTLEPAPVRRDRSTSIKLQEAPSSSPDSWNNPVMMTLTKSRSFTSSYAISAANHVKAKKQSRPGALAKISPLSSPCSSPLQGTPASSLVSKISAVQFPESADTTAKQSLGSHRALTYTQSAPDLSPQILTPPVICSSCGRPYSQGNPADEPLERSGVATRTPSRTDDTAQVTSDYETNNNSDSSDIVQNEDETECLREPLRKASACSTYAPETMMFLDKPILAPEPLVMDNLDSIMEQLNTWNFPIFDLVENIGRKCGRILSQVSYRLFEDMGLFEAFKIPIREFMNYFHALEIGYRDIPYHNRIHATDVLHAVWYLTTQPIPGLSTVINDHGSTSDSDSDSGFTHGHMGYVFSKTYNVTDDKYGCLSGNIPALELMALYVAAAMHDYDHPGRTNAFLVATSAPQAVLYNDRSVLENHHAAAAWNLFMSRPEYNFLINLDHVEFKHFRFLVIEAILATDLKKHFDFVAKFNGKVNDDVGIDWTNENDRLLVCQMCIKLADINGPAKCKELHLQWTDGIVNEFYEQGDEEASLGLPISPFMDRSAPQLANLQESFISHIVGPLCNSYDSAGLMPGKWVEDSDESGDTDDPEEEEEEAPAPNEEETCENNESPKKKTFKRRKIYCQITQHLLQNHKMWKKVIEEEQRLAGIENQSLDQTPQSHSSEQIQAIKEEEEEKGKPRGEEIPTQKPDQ

[6] = biological target: T4, Alpha-2C adrenergic receptor (Homo sapiens, UniProt P18825); format: functional
T4 sequence (P18825 whole entry): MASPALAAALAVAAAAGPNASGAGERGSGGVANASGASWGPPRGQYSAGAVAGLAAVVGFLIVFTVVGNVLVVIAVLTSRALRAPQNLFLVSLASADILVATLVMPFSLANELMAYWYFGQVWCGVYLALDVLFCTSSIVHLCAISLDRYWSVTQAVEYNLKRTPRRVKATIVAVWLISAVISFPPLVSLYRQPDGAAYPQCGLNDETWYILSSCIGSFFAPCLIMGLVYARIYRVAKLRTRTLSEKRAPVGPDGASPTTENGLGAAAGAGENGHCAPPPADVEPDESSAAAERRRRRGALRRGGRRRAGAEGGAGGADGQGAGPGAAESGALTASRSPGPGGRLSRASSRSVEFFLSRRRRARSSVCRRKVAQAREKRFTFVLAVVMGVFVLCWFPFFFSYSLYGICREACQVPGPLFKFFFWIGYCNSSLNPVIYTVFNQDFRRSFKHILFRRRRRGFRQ

[7] = biological target: T5, Alpha-1A adrenergic receptor (Homo sapiens, UniProt P35348); format: functional, cell-based
T5 sequence (P35348 whole entry): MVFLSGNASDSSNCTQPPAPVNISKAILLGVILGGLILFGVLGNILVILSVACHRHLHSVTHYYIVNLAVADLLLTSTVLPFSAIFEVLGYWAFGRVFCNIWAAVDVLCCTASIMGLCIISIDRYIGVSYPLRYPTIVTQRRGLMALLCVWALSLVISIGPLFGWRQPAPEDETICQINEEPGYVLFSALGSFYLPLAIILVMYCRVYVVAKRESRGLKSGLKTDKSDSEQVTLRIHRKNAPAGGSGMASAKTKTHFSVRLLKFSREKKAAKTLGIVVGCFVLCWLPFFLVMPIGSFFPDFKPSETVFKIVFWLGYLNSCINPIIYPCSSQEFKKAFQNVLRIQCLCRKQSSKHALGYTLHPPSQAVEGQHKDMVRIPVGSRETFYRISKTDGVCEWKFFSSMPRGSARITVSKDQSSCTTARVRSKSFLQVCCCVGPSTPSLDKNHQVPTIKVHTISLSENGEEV

[8] = biological target: Sodium-dependent dopamine transporter (Homo sapiens, UniProt Q01959)
Sodium-dependent dopamine transporter, sequence (Q01959 whole entry): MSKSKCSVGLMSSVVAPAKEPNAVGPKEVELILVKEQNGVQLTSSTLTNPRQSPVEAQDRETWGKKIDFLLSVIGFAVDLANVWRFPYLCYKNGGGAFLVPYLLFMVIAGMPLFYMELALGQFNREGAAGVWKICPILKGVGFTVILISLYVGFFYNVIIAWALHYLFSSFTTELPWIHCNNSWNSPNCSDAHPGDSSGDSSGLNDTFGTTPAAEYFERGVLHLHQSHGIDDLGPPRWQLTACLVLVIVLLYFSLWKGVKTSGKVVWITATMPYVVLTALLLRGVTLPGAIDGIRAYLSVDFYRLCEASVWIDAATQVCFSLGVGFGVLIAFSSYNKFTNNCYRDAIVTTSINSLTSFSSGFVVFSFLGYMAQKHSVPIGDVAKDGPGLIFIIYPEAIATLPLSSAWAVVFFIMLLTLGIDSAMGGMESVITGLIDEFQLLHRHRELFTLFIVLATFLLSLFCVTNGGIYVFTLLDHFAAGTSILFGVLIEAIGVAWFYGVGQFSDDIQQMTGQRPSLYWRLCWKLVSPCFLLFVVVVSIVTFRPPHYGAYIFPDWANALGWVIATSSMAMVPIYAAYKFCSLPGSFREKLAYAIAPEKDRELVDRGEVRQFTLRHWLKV
Further: assay procedure not described here.

Compound	AC50 (Estrogen receptor)	AC50 (Histamine H3 receptor)	AC50 (Adenosine receptor A2a)	AC50 (Cannabinoid receptor 1)	AC50 [1]	AC50 [2]	AC50 [3]	AC50 [4]	AC50 [5]	AC50 [6]	AC50 [7]	AC50 [8]
C#Cc1cccc(Nc2ncnc3cc(OCCOC)c(OCCOC)cc23)c1 [ERLOTINIB]	> 30 µM	> 30 µM	18 µM	> 10 µM	> 30 µM	1.64 µM	> 30 µM	> 30 µM	> 30 µM	> 30 µM	> 30 µM	> 30 µM
CCC(=O)O[C@@H](O[P@](=O)(CCCCc1ccccc1)CC(=O)N1C[C@H](C2CCCCC2)C[C@H]1C(=O)O)C(C)C [FOSINOPRIL]	> 30 µM			> 30 µM	> 30 µM		> 30 µM	> 30 µM	> 30 µM	> 30 µM	> 30 µM	
CN(C)c1cc(CNCC(C)(C)C)c(O)c2c1C[C@H]1C[C@H]3[C@H](N(C)C)C(O)=C(C(N)=O)C(=O)[C@@]3(O)C(O)=C1C2=O [OMADACYCLINE]	> 30 µM	24 µM	> 30 µM	> 30 µM	> 30 µM		> 30 µM		> 30 µM	> 30 µM	> 30 µM	> 30 µM
CNC(=O)c1cc(Oc2ccc(NC(=O)Nc3ccc(Cl)c(C(F)(F)F)c3)c(F)c2)ccn1 [REGORAFENIB]	> 30 µM		> 30 µM		> 30 µM				> 30 µM	> 30 µM	> 30 µM	6.33 µM
CC[C@H]1OC(=O)[C@H](C)[C@@H](O[C@H]2C[C@@](C)(OC)[C@@H](O)[C@H](C)O2)[C@H](C)[C@@H](O[C@@H]2O[C@H](C)C[C@H](N(C)C)[C@H]2O)[C@](C)(O)C[C@@H](C)/C(=N\OCOCCOC)[C@H](C)[C@@H](O)[C@]1(C)O [ROXITHROMYCIN]		> 30 µM	> 30 µM	> 30 µM	> 30 µM		> 30 µM	> 30 µM	> 30 µM	> 30 µM	> 30 µM	> 30 µM
CC(C)N(CCCCOCC(=O)NS(C)(=O)=O)c1cnc(-c2ccccc2)c(-c2ccccc2)n1 [SELEXIPAG]		> 30 µM	> 30 µM	28 µM	> 30 µM		12 µM	24 µM	> 30 µM	> 30 µM	7.2 µM	> 30 µM
CC(=O)S[C@@H]1CC2=CC(=O)CC[C@]2(C)[C@H]2CC[C@@]3(C)[C@@H](CC[C@@]34CCC(=O)O4)[C@H]12 [SPIRONOLACTONE]		> 30 µM	> 30 µM	> 30 µM	> 30 µM		29 µM	> 30 µM	> 30 µM	> 30 µM	> 30 µM	> 30 µM
Cc1cc(CC(=O)O)n(C)c1C(=O)c1ccc(Cl)cc1 [ZOMEPIRAC]		> 30 µM	> 30 µM	> 10 µM	> 30 µM		> 30 µM	> 30 µM	> 30 µM	> 30 µM	> 30 µM	> 30 µM
